Values after ≈ are worked out from the molar mass of the structure shown. Where two headings read alike, the source gives them in different places.
Experiments:
staphylococci = assay: Minimum inhibitory concentration, microdilution broth method, staphylococci; type: cell-based; details: Staphylococcus aureus, Mueller-Hinton broth, 18-22 hours at 35° C.
Method: (§1) Evaluation of the Minimum Inhibitory Concentration of Test Compounds Against A Variety of Bacterial Strains
(§2) In this evaluation the minimal inhibitory concentration (MIC) of test compounds against Gram positive and Gram negative bacteria is performed using the microdilution broth method as recommended by the National Committee for Clinical Laboratory Standards (Approved Standards M7-A5 2000). Mueller-Hinton broth is used for the enterobacteriaceae, staphylococci and enterococci. Streptococci are also tested in Mueller-Hinton broth supplemented with 5% horse blood (LHB). Test organisms include recent clinical isolates that are resistant to methicillin, penicillin and/or vancomycin. […].

[1] = target: E. coli Uridine-diphosphate-N-acetylmuramoyl-L-alanine: D-glutamate liease, MurD (Escherichia coli, UniProt P14900); assay: biochemical; details: (E) E. coli enzyme
Sequence of E. coli Uridine-diphosphate-N-acetylmuramoyl-L-alanine: D-glutamate liease, MurD (P14900 whole entry): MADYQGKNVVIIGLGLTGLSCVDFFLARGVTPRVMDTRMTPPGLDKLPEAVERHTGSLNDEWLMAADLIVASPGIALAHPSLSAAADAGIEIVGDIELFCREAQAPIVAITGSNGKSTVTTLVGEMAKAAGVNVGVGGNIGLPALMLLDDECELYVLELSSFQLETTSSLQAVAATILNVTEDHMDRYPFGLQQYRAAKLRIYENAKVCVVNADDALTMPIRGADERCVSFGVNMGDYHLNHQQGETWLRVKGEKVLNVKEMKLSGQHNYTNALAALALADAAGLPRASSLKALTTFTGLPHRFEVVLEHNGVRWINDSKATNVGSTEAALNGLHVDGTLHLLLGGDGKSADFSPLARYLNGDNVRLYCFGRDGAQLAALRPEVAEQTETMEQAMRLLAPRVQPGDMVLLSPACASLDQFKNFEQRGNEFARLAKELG
Method: S. aureus and E. coli Uridine-diphosphate-N-acetylmuramoyl-L-alanine: D-glutamate liease, MurD
The buffer is prepared from aqueous reagents with the following final concentrations: 83 mM Tris/HCl (pH 8.0), 50 mM MgCl2, and 2 mM ATP.
(§3) Preparation of Enzyme Solution:
(§4) Preparation of Test Compound Solutions:
(§5) All test solutions are prepared in DMSO as 10 mg/mL, then diluted with 50 mM Tris/HCl (pH 8.5) to 100 μg/mL.
(§6) Preparation of Stop Solution:
In this evaluation, the inhibitory activity of a test compound against MurD, the enzyme which catalyzes the fourth step of bacterial cell wall biosynthesis is determined.

[2] = target: E. coli Uridine-diphosphate-N-acetvimuramoyl: L-alanine lipase, MurC (Escherichia coli, UniProt P17952); assay: Inhibitory activity against MurC (E. coli); type: biochemical; details: (E) E. coli enzyme; for IC50: read-out: MurC IC50 (converted)
Sequence of E. coli Uridine-diphosphate-N-acetvimuramoyl: L-alanine lipase, MurC (P17952 whole entry): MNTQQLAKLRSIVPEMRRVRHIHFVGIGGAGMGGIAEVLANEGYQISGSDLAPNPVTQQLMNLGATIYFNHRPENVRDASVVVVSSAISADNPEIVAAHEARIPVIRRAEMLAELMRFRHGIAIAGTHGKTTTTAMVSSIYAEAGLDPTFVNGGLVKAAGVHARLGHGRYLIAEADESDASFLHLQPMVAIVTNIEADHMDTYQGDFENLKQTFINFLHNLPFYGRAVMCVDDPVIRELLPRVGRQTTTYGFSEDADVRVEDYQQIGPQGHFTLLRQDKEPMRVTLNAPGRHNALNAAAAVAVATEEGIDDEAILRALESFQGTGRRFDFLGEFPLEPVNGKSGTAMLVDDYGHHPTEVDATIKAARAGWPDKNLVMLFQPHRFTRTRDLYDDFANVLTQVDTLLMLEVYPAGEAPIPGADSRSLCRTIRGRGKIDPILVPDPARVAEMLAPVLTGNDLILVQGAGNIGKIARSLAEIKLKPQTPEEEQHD
Method: S. aureus and E. coli Uridine-diphosphate-N-acetvimuramoyl: L-alanine lipase, MurC
The buffer is prepared from aqueous reagents with the following final concentrations: 83 mM Tris/HCl (pH 8.0), 50 mM MgC12, and 2 mM ATP.
as §3
A 1 mg/mL stock solution of MurC is prepared in a buffer consisting of 20 mM Tris/HCl (pH 8.5) with 2.5 μM BME. The stock solution is further diluted with the buffer to give a final enzyme concentration of 100 μg/mL for the E. coli stock solution and 70 μg/mL for the S. aureus stock solution.
as §4, §5, §6
The stop solution is prepared by stirring 1 part 4.2% ammonium molydbate in 4N HCl with 2 parts 0.045% malachite green for 30 min.
In this evaluation, the inhibitory activity of a test compound against MurC, the enzyme which catalyzes the third step of bacterial cell wall bioxynthesis is determined. Experiments are performed by adding 2.5 μl buffer, 2.5 μl 0.5M NH4SO2, 5 μl 2 μM L-Ala, 5 μl enzyme solution and 6.5 μl test compound solution to each well in a 96-well microplate. After a pre-incubation period of 10 mins. at 23° C., 3.75 μl of a 0.75 μM solution of UDP-MurNac is added to each well. Following an incubation period of 10 mins. at 37° C., 210 μl stop solution and 50 μl of a 34% w/v sodium citrate solution are added and color is allowed to develop for 10 mins. at 23° C. (Lanzetta et al., Analytical Biochemistry, 1979, 95) Optical density readings are taken at 660 nm using a Molecular Devices Spectra Max 250 with Soft Max software. Controls are performed using the same procedure and omitting the addition of UDP-MurNac.
Using these values the IC50 is determined by linear regression analysis.

Streptococci = assay: Minimum inhibitory concentration, microdilution broth method, streptococci; type: cell-based; details: S. pneumo GC 1894; Mueller-Hinton broth with 5% horse blood, 18-22 hours at 35° C.
Method: as §1, §2

[3] = target: E. coli UDP-N-acetylglucosamine enolpyruvoyl transferase, MurA (Escherichia coli, UniProt P0A749); assay: biochemical; details: (E) E. coli enzyme
Sequence of E. coli UDP-N-acetylglucosamine enolpyruvoyl transferase, MurA (P0A749 whole entry): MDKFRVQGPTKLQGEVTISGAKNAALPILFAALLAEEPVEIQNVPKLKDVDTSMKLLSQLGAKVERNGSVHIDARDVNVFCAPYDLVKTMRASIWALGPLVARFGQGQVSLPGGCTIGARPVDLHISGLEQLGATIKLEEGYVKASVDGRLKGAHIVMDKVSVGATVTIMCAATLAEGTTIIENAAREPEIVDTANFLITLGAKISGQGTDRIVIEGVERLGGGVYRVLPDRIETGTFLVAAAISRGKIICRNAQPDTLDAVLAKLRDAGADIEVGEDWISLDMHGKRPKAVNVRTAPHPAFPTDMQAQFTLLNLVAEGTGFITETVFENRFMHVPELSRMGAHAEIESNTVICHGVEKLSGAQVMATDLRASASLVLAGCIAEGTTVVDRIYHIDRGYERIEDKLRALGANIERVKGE
Method: Evaluation of the Inhibitory Activity of Test Compounds Against Enzymes which Catalyze Bacterial Cell Wall Biosynthesis
S. aureus and E. coli UDP-N-acetylglucosamine enolpyruvoyl transferase, MurA
as §3
The enzyme solution is prepared by admixing the following: 50 mM Tris/HCl pH 8.0, […] 1 M Tris, 5 mM DTT, […] 1 M DTT, 20% Glycerol 4 ml 50% Glycerol, add water to 10 ml.
as §6
A procedure similar to that described by C. […] Experiments are performed by adding a solution of test compound (in a mixture of dimethylsulfoxide and water) and an enzyme solution to a well. After a pre-incubation period of 10 mintues at 37° C., Tris/BME buffer and assay buffer are added. A start point optical density (OD0) reading is taken at 340 nm immediately following the addition of assay buffer. After incubation for 1 hr at 37° C., the stop solution is added and the color is allowed to develop for 30 minutes.

[4] = target: E. coli Enopyruvyl-UPD-N-acetylglucosamine reductase, Mur B (Escherichia coli, UniProt P08373); assay: biochemical; details: (E) E. coli enzyme; for IC50: read-out: MurB IC50 (converted)
Sequence of E. coli Enopyruvyl-UPD-N-acetylglucosamine reductase, Mur B (P08373 whole entry): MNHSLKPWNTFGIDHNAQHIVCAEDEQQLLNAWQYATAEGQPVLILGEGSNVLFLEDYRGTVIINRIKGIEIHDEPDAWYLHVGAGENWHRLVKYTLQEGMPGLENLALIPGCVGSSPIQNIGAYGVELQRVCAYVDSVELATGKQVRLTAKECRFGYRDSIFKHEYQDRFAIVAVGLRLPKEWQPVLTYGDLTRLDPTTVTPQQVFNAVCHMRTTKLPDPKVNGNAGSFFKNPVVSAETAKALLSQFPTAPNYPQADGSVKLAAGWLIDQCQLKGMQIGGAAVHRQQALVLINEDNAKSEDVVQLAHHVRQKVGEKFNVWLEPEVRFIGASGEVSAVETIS
Method: S. aureus and E. coli Enopyruvyl-UPD-N-acetylglucosamine reductase, Mur B
Preparation of Tris/BME buffer:
Dilute 17.5 uL of aqueous 5 mM BME (2-mercaptoethanol) to 50 mL with 50 mM Tris/HCl (pH 8.0).
as §3
Dilute aqueous MurB stock solution (0.94 mg/mL) with 200 parts 50 mM Tris/2-BME buffer.
Synthesis of Substrate for MurB (MurA Product EP-UDP-GluNAc):
A mixture of 13 mg UDP-N-acetylglucosamine and 5.5 mg phosphoenolpyruvate are dissolved in 10 mL Tris/BME buffer forming 2 mM concentrations of each reagent in solution.
Preparation of Assay Buffer:
The assay buffer is prepared in water from reagents with the following final concentrations: 100 mM Tris/HCl (pH 8.0), 200 μM NADPH, 100 μM MurB substrate, 10 μM 2-mercaptoethanol, and 10 μM KCl.
Experiments are performed by adding 20 μL of a solution of test compound in a mixture of dimethylsulfoxide and water and 30 μL of enzyme solution to a well. After a pre-incubation period of 20 mins. at 23° C., 50 μL of Tris/BME buffer and 100 μL of assay buffer are added. […] Controls are performed using the same procedure and employing 20 μL of a blank dimethylsulfonide and solvent mixture in place of the test compound solution.
Using these values, the IC50 for each test compound is determined by linear regression analysis.

enterococci = assay: Minimum inhibitory concentration, microdilution broth method, enterococci; type: cell-based; details: Enterococcus faecalis, Mueller-Hinton broth, 18-22 hours at 35° C.
Method: as §1, §2

[5] = S. aureus GC 1131, read-out: MIC S. aureus GC 1131
[6] = S. aureus GC 4543, read-out: MIC S. aureus GC 4543
[7] = E. faecalis GC 2242, read-out: MIC E. faecalis GC 2242
[8] = E. faecalis GC 4555, read-out: MIC E. faecalis GC 4555

| SMILES | MIC (staphylococci; [5]) [µg/mL] | MIC (staphylococci; [6]) [µg/mL] | IC50 [1] [µM] | IC50 [2] [µM] | MIC (Streptococci) [µg/mL] | IC50 [3] [µM] | IC50 [4] [µM] | MIC (enterococci; [7]) [µg/mL] | MIC (enterococci; [8]) [µg/mL] | MurD IC50 [1] | MurC IC50 [2] | MurA IC50 [3] | MurB IC50 [4] |
| --- | --- | --- | --- | --- | --- | --- | --- | --- | --- | --- | --- | --- | --- |
| CCOc1ccc(-c2ccc(C3=C(O)/C(=C/c4cc(C(F)(F)F)ccc4F)OC3=O)cc2)cc1 [Example 122] | 16 (≈ 34 µM) | 16 (≈ 34 µM) | > 53.1 | > 53.1 | 1 (≈ 2.13 µM) | 34 | 29.8 | 8 (≈ 17 µM) | 32 (≈ 68 µM) | – | – | – | – |
| CC(C)(C)c1ccc(-c2ccc(C3=C(O)/C(=C/c4ccc(Cl)c(C(F)(F)F)c4)OC3=O)cc2)cc1 [Example 123] | 16 (≈ 32.1 µM) | 16 (≈ 32.1 µM) | > 50.1 | > 50.1 | 0.5 (≈ 1 µM) | 42.1 | 6.01 | 4 (≈ 8.02 µM) | 8 (≈ 16 µM) | – | – | – | – |
| CCOc1ccc(-c2ccc(C3=C(O)/C(=C/c4ccc(Cl)c(C(F)(F)F)c4)OC3=O)cc2)cc1 [Example 124] | 32 (≈ 65.7 µM) | 32 (≈ 65.7 µM) | > 51.3 | > 51.3 | 1 (≈ 2.05 µM) | 28.8 | 24.6 | 16 (≈ 32.9 µM) | 32 (≈ 65.7 µM) | – | – | – | – |
| O=C1O/C(=C\c2cc(C(F)(F)F)ccc2Cl)C(O)=C1c1ccc(-c2ccccc2)cc1 [Example 125] | 2 (≈ 4.52 µM) | 2 (≈ 4.52 µM) | 45.2 | 2.26 | 0.5 (≈ 1.13 µM) | 9.03 | 11.3 | 4 (≈ 9.03 µM) | 8 (≈ 18.1 µM) | – | – | – | – |
| O=C1O/C(=C\c2cc(C(F)(F)F)ccc2Cl)C(O)=C1c1ccc(-c2ccccc2)c(F)c1 [Example 126] | 1 (≈ 2.17 µM) | 1 (≈ 2.17 µM) | – | – | 0.25 (≈ 0.543 µM) | – | – | 1 (≈ 2.17 µM) | 4 (≈ 8.68 µM) | 9 (E) μg/mL | 5 (E) μg/mL | 3 (E) μg/mL | 1 (E) μg/mL |
| CCCc1ccc(-c2ccc(C3=C(O)/C(=C/c4cc(C(F)(F)F)ccc4Cl)OC3=O)cc2)cc1 [Example 127] | 4 (≈ 8.25 µM) | 2 (≈ 4.12 µM) | > 51.6 | > 51.6 | 0.25 (≈ 0.516 µM) | 8.25 | 12.4 | 2 (≈ 4.12 µM) | 4 (≈ 8.25 µM) | – | – | – | – |
| CC(C)(C)c1ccc(-c2ccc(C3=C(O)/C(=C/c4cc(C(F)(F)F)ccc4Cl)OC3=O)cc2)cc1 [Example 128] | 8 (≈ 16 µM) | 4 (≈ 8.02 µM) | > 50.1 | 48.1 | 0.25 (≈ 0.501 µM) | 8.02 | 10 | 2 (≈ 4.01 µM) | 8 (≈ 16 µM) | – | – | – | – |
| CCOc1ccc(-c2ccc(C3=C(O)/C(=C/c4cc(C(F)(F)F)ccc4Cl)OC3=O)cc2)cc1 [Example 129] | 2 (≈ 4.11 µM) | 2 (≈ 4.11 µM) | 14.4 | 14.4 | 0.25 (≈ 0.513 µM) | 4.11 | 4.11 | 2 (≈ 4.11 µM) | 4 (≈ 8.22 µM) | – | – | – | – |

Source: patent US7495027B2, “3-aryl-4-hydroxyfuranone compounds and the human and animal health use thereof” (Wyeth, priority 2003, dated 2009)
